In US8101605B2, “SHIP1 modulators and methods related thereto” (Aquinox Pharmaceuticals Inc., priority 2009, dated 2012):

Experiments:
[1] = tested on: allergen-induced passive cutaneous anaphylaxis; assay: Passive cutaneous anaphylaxis in mice; assay type: in vivo; conditions: oral gavage, doses less than 20 mg/kg
Procedure: The activity of representative compounds on passive cutaneous anaphylaxis in mice was evaluated according to the procedures disclosed by Ovary, J Immunol 81, 355-357, 1958 and Halpern et al., Br J Pharmacol Chemother 20, 389-398, 1963, both of which are incorporated herein by reference in their entirety. To induce a passive cutaneous anaphylaxis, mice underwent intradermal ear inoculation on their right ear with 25 ng in 20 μL of anti-DNP-IgE. The left ears were untreated and served as negative controls. Twenty-four hours after inoculation, all mice were administered test compound by oral gavage (PO). Sixty minutes after oral administration, mice were given a tail vein injection of 2% Evan's blue (0.2 μm filtered, in 200 μL saline) followed by a second tail IV injection of 100 μg DNP-HSA (in 200 μL). Sixty minutes following the DNP-HSA injection, mice were euthanized using CO2 inhalation. Subsequently, ear biopsies were performed by taking four millimetre punches from both ears, which then underwent Evan's Blue extraction using formamide incubation in 96 well plates. Eighty μL of eluents were transferred to flat-bottom 96-well plates and absorbance read using SpectraMax M5 spectrophotometer (Molecular Devices, Sunnyvale, Calif., USA) at 620 nm. Background readings from all samples were taken at 740 nm and subtracted from the 620 nm readings. Data were reported as OD. […] Scoring in Table 4 is expressed as follows: + (1-30% inhibition); ++ (31-50% inhibition); +++ (>50% inhibition).

His-hSHIP1 enzyme = molecular target: T1, His-hSHIP1 enzyme (Homo sapiens, UniProt Q92835); assay: His-hSHIP1 phosphatase activity assay (IP4 substrate, Biomol Green); assay type: biochemical; conditions: percentage increase relative to background; concentrations ≦300 μM
T1 sequence (Q92835 1-1189): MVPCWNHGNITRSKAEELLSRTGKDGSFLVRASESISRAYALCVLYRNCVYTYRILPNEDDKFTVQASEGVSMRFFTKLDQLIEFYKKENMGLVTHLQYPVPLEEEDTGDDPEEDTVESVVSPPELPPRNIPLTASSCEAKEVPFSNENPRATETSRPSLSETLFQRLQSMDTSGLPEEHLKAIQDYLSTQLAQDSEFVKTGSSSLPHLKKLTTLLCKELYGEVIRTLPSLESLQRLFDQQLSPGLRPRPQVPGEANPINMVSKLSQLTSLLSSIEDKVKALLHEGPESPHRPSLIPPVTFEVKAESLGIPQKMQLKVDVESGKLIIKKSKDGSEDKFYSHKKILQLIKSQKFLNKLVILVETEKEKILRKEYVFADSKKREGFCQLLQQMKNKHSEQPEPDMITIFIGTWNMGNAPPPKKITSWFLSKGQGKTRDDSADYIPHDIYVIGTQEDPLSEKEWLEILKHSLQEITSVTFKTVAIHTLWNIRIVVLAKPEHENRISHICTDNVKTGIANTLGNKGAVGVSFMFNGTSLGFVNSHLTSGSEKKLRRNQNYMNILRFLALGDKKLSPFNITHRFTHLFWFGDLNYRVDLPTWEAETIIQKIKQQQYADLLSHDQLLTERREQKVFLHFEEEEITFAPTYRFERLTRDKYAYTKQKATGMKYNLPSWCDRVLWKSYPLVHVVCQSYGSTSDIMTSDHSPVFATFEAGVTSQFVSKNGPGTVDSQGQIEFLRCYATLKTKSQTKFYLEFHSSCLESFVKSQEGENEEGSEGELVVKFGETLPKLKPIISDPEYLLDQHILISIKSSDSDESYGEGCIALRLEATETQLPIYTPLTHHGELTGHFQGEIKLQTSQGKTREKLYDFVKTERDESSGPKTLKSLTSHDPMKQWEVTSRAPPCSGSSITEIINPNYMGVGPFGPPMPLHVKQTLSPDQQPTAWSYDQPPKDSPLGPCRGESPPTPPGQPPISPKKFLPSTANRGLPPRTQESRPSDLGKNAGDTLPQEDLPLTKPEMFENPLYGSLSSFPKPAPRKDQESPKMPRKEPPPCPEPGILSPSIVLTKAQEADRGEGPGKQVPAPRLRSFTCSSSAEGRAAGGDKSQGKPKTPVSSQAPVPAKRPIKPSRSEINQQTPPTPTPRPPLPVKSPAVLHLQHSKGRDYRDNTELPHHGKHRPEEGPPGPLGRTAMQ
In short: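 His-hSHIP1 (15–20 ng) was incubated with IP4 (50 μM final) and compound (0–300 μM final, from 10% ethanol solutions) in 20 mM Tris-HCl, 10 mM MgCl2 pH 7.5, 0.02% Tween 20 for 15 min at 37 °C. Released phosphate was read with Biomol Green at 650 nm. Activation is % increase over background, scored + (<50%), ++ (≥50% but <65%), +++ (≥65%).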

CC1(C)CCC[C@]2(C)[C@H]3COc4c(O)cc(O)cc4[C@]3(C)CC[C@@H]12 [Compound No. 43, (1R,10R,11S,16S)-1,11,15,15-tetramethyl-8-oxatetracyclo[8.8.0.0^2,7.0^11,16]octadeca-2,4,6-triene-4,6-diol]
Scoring: inhibition of passive cutaneous anaphylaxis [1]: + (1-30% inhibition)
Scoring: percent (%) activation of His-hSHIP1 enzyme (His-hSHIP1 enzyme): + (<50%)
